Measurements as given in patent EP0406428B1, “PEPTIDE DERIVATIVES AND THEIR USE” (ASAHI GLASS COMPANY LTD., priority 1988, dated 1995).
Residues, ends and D or L forms follow the SMILES beside them.

Experiments:
blood platelet = assay: Decrease in number of blood platelet in surgical operation using artificial heart and lung; type: in vivo; settings: surgical operations using artificial heart and lung; control PBS
Description: The following Table indicates the results of examination of decrease in the number of the blood platelet, when 100 »g (per 1 kg of weight/minute) of [formula] was added for the purpose of the surgical operation. As the control, there was added PBS in place of peptide.

trypsin = assay: Peptide map: decomposition with trypsin, HPLC analysis; type: in vitro ADME; settings: Tris-HCl 100 mM pH 8.5, 37°C, 24 hours, compared with linear peptide (GRGDSPA)
Description: Peptide was dissolved in 10 mg/mℓ of distilled water. 20 »l of this solution was diluted with addition of 180 »l of a buffer solution (Tris-HCl, 100 mM, pH 8.5). To this diluted solution, 5 »l of a trip solution (1 mg/mℓ […], CaCl₂ 10 mM) was added, and the mixture was kept at a temperature of 37°C for 24 hours. Then, 10 »l of 2N HCl was added to this mixed solution to complete the reaction. Out of this reaction liquid, 50 »l was provided for high performance liquid chromatography HPLC for its analysis. Condition for Analysis HP HPLC: Waters Model 510 Column: YMC-ODS Detection: A₂₁₄ Elution: Liquid A - 0.1% aqueous solution of TFA Liquid B - 0.1% acetonitrile solution of TFA Linear concentration gradient of: 0% B → 30% B (0 min.) (30 min.) Figure 1 is a graphical representation showing the result of analysis of the cyclic peptide synthesized in accordance with this Example. Also, the linear peptide (GRGDSPA) synthesized in accordance with (14) above was tested under the same conditions as mentioned above. The result of its analysis is shin in Figure 2.

| SMILES | inhibiting aggregation of blood platelet (blood platelet) | decomposition by treatment with trypsin (trypsin) |
| --- | --- | --- |
| C[C@@H]1NC(=O)[C@@H]2CCCN2C(=O)[C@H](CO)NC(=O)[C@H](CC(=O)O)NC(=O)CNC(=O)[C@H](CCCNC(=N)N)NC(=O)CNC1=O [Example I00042] (cyclo(RGDSPAG)) | capability of inhibiting such aggregation at its low concentration | – |
| C[C@@H]1NC(=O)[C@@H]2CCCN2C(=O)[C@H](CO)NC(=O)[C@H](CC(=O)O)NC(=O)CNC(=O)[C@H](CCCNC(=N)N)NC(=O)CNC1=O [Example 1] (cyclo(RGDSPAG)) | – | difficult to undergo further decomposition |
